Experimental data from patent publication US10112929B2, “Lactams as inhibitors of rock” (BRISTOL-MYERS SQUIBB COMPANY, priority 2015, dated 2018).
pIC50: −log10 of the molar value.

Target: ROCK2 (Homo sapiens (Human), UniProt O75116)
Test: biochemical
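Also: rho kinase enzyme reaction halted with EDTA, phospho- and non-phospho peptide separated for read-out, kinase activity inhibition derived across a dose-response series, DMSO under 2%.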

ROCK2, sequence (O75116 whole entry, species assumed): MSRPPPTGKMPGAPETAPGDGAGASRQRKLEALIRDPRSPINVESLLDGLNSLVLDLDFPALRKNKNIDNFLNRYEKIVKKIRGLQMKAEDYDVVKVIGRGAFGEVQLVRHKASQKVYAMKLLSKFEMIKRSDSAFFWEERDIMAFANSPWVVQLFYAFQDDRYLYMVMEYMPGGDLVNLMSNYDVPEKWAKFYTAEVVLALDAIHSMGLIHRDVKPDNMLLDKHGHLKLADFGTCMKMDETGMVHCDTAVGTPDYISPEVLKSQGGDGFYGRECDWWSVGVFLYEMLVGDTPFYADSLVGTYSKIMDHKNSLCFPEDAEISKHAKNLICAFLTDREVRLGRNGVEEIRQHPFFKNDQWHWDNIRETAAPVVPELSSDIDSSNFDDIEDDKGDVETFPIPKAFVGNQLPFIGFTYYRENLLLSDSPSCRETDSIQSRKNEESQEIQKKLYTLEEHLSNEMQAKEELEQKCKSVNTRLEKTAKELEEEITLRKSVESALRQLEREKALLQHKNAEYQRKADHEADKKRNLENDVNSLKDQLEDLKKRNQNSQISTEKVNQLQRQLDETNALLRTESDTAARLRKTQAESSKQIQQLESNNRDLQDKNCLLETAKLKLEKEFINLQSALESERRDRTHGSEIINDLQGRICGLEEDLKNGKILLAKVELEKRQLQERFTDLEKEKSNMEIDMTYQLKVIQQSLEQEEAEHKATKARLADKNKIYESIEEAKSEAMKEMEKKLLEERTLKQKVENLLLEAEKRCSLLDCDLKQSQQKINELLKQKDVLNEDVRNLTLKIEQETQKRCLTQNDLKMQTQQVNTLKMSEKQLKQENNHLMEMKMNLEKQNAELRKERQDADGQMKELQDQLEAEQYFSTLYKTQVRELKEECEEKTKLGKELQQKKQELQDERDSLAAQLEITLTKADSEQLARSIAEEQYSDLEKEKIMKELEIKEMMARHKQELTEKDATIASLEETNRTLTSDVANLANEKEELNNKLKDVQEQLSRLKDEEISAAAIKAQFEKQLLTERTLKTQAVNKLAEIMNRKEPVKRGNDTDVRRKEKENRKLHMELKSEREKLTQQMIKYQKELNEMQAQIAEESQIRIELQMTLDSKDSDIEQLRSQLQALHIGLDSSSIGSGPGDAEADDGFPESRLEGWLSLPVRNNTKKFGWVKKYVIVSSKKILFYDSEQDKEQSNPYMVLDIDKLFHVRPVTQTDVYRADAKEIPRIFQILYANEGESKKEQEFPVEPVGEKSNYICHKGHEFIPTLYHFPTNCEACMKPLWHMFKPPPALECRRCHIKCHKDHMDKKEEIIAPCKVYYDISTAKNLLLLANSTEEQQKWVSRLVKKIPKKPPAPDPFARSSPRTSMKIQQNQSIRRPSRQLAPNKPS

pIC50 | Compound
5.66 to 7.00 | COc1c(F)cccc1NC1CCN(c2ccc(-c3cn[nH]c3)cc2)C1=O (single isomer, unassigned) [Example 16, 1-(4-(1H-pyrazol-4-yl)phenyl)-3-((3-fluoro-2-methoxyphenyl)amino)pyrrolidin-2-one]
7.00 to 8.00 | COc1cc(NC2CCN(c3ccc(-c4cn[nH]c4)cc3)C2=O)ccc1F (single isomer, unassigned) [Example 17, 1-(4-(1H-pyrazol-4-yl)phenyl)-3-((4-fluoro-3-methoxyphenyl)amino)pyrrolidin-2-one]
> 8.00 | COc1cc(NC2CCN(c3ccc(-c4cn[nH]c4)cc3)C2=O)ccc1F (single isomer, unassigned) [Example 18, 1-(4-(1H-pyrazol-4-yl)phenyl)-3-((4-fluoro-3-methoxyphenyl)amino)pyrrolidin-2-one]
5.66 to 7.00 | COc1ccc(NC2CCN(c3ccc(-c4cn[nH]c4)cc3)C2=O)c(F)c1 (single isomer, unassigned) [Example 19, 1-(4-(1H-pyrazol-4-yl)phenyl)-3-((2-fluoro-4-methoxyphenyl)amino)pyrrolidin-2-one]
5.66 to 7.00 | COc1cc(NC2CCN(c3ccc(-c4cn[nH]c4)cc3)C2=O)cc(OC)c1 (single isomer, unassigned) [Example 21, 1-(4-(1H-pyrazol-4-yl)phenyl)-3-((3,5-dimethoxyphenyl)amino)pyrrolidin-2-one]
> 8.00 | O=C1C(Nc2cccc(F)c2F)CCN1c1ccc(-c2cn[nH]c2)cc1 (single isomer, unassigned) [Example 23, 1-(4-(1H-pyrazol-4-yl)phenyl)-3-((2,3-difluorophenyl)amino)pyrrolidin-2-one]
7.00 to 8.00 | O=C1C(Nc2ccc(F)cc2F)CCN1c1ccc(-c2cn[nH]c2)cc1 (single isomer, unassigned) [Example 25, 1-(4-(1H-pyrazol-4-yl)phenyl)-3-((2,4-difluorophenyl)amino)pyrrolidin-2-one]
> 8.00 | COc1cc(F)cc(NC2CCN(c3ccc(-c4cn[nH]c4)cc3)C2=O)c1 (single isomer, unassigned) [Example 26, 1-(4-(1H-pyrazol-4-yl)phenyl)-3-((3-fluoro-5-methoxyphenyl)amino)pyrrolidin-2-one]
> 8.00 | COc1cccc(NC2CCN(c3ccc(-c4cn[nH]c4)cc3)C2=O)c1 (single isomer, unassigned) [Example 28, 1-(4-(1H-pyrazol-4-yl)phenyl)-3-((3-methoxyphenyl)amino)pyrrolidin-2-one]
7.00 to 8.00 | COc1cccc(N(C)C2CCN(c3ccc(-c4cn[nH]c4)cc3)C2=O)c1 (single isomer, unassigned) [Example 30, 1-(4-(1H-pyrazol-4-yl)phenyl)-3-((3-methoxyphenyl)(methyl)amino)pyrrolidin-2-one]
5.66 to 7.00 | COc1cccc(N(C)C2CCN(c3ccc(-c4cn[nH]c4)cc3)C2=O)c1 (single isomer, unassigned) [Example 31, 1-(4-(1H-pyrazol-4-yl)phenyl)-3-((3-methoxyphenyl)(methyl)amino)pyrrolidin-2-one]
5.66 to 7.00 | COc1c(F)cccc1NC1CCN(c2ccc(-c3cn[nH]c3)c(OC(F)F)c2)C1=O (single isomer, unassigned) [Example 32, 1-(3-(difluoromethoxy)-4-(1H-pyrazol-4-yl)phenyl)-3-((3-fluoro-2-methoxyphenyl)amino)pyrrolidin-2-one]
7.00 to 8.00 | COc1c(F)cccc1NC1CCN(c2ccc(-c3cn[nH]c3)c(OC(F)F)c2)C1=O (single isomer, unassigned) [Example 33, 1-(3-(difluoromethoxy)-4-(1H-pyrazol-4-yl)phenyl)-3-((3-fluoro-2-methoxyphenl)amino)pyrrolidin-2-one]
> 8.00 | CCOc1cc(N2CCC(Nc3cccc(OC)c3)C2=O)ccc1-c1cn[nH]c1 (single isomer, unassigned) [Example 34, 1-(3-ethoxy-4-(1H-pyrazol-4-yl)phenyl)-3-((3-methoxyphenyl)amino)pyrrolidin-2-one]
7.00 to 8.00 | CCOc1cc(N2CCC(Nc3cccc(OC)c3)C2=O)ccc1-c1cn[nH]c1 (single isomer, unassigned) [Example 35, 1-(3-ethoxy-4-(1H-pyrazol-4-yl)phenyl)-3-((3-methoxyphenyl)amino)pyrrolidin-2-one]
> 8.00 | CCOc1cc(N2CCC(Nc3cc(F)cc(OC)c3)C2=O)ccc1-c1cn[nH]c1 (single isomer, unassigned) [Example 36, 1-(3-ethoxy-4-(1H-pyrazol-4-yl)phenyl)-3-((3-fluoro-5-methoxyphenyl)amino)pyrrolidin-2-one]
5.66 to 7.00 | CCOc1cc(N2CCC(Nc3cc(F)cc(OC)c3)C2=O)ccc1-c1cn[nH]c1 (single isomer, unassigned) [Example 37, 1-(3-ethoxy-4-(1H-pyrazol-4-yl)phenyl)-3-((3-fluoro-5-methoxyphenyl)amino)pyrrolidin-2-one]
7.00 to 8.00 | CCOc1cc(N2CCC(Nc3ccc(F)c(OC)c3)C2=O)ccc1-c1cn[nH]c1 (single isomer, unassigned) [Example 38, 1-(3-ethoxy-4-(1H-pyrazol-4-yl)phenyl)-3-((4-fluoro-3-methoxyphenyl)amino)pyrrolidin-2-one]

pIC50 | Compound
5.66 to 7.00 | CCOc1cc(N2CCC(Nc3cc(OC)ccc3F)C2=O)ccc1-c1cn[nH]c1 (single isomer, unassigned) [Example 40, 1-(3-ethoxy-4-(1H-pyrazol-4-yl)phenyl)-3-((2-fluoro-5-methoxyphenyl)amino)pyrrolidin-2-one]
7.00 to 8.00 | COc1ccc2c(c1)CCN2C1CCN(c2ccc(-c3cn[nH]c3)cc2)C1=O (single isomer, unassigned) [Example 42, 1-(4-(1H-pyrazol-4-yl)phenyl)-3-(5-methoxyindolin-1-yl)pyrrolidin-2-one]
> 8.00 | O=C1C(Nc2ccccc2)CCN1c1ccc(-c2cn[nH]c2)c(F)c1 (single isomer, unassigned) [Example 43, 1-(3-fluoro-4-(1H-pyrazol-4-yl)phenyl)-3-(phenylamino)pyrrolidin-2-one]
> 8.00 | COc1cccc(NC2CCN(c3ccc(-c4cn[nH]c4)c(F)c3)C2=O)c1 (single isomer, unassigned) [Example 45, 1-(3-fluoro-4-(1H-pyrazol-4-yl)phenyl)-3-((3-methoxyphenyl)amino)pyrrolidin-2-one]
> 8.00 | O=C1C(Nc2cccc(F)c2)CCN1c1ccc(-c2cn[nH]c2)c(F)c1 (single isomer, unassigned) [Example 47, 1-(3-fluoro-4-(1H-pyrazol-4-yl)phenyl)-3-((3-fluorophenyl)amino)pyrrolidin-2-one]
7.00 to 8.00 | O=C1C(Nc2cccc(F)c2)CCN1c1ccc(-c2cn[nH]c2)c(F)c1 (single isomer, unassigned) [Example 48, 1-(3-fluoro-4-(1H-pyrazol-4-yl)phenyl)-3-((3-fluorophenyl)amino)pyrrolidin-2-one]
> 8.00 | COc1cc(F)cc(NC2CCN(c3ccc(-c4cn[nH]c4)c(F)c3)C2=O)c1 (single isomer, unassigned) [Example 49, 1-(3-fluoro-4-(1H-pyrazol-4-yl)phenyl)-3-((3-fluoro-5-methoxyphenyl)amino)pyrrolidin-2-one]
7.00 to 8.00 | COc1cccc2c1N(C1CCN(c3ccc(-c4cn[nH]c4)cc3)C1=O)CC2 (single isomer, unassigned) [Example 51, l-(4-(1H-pyrazol-4-yl)phenyl)-3-(7-methoxyindolin-1-yl)pyrrolidin-2-one]
5.66 to 7.00 | COc1cccc2c1N(C1CCN(c3ccc(-c4cn[nH]c4)cc3)C1=O)CC2 (single isomer, unassigned) [Example 52, 1-(4-(1H-pyrazol-4-yl)phenyl)-3-(7-methoxyindolin-1-yl)pyrrolidin-2-one]
5.66 to 7.00 | O=C1C(Nc2ccc3c(c2)OC(F)(F)O3)CCN1c1ccc(-c2cn[nH]c2)cc1 (single isomer, unassigned) [Example 53, 1-(4-(1H-pyrazol-4-yl)phenyl)-3-((2,2-difluorobenzo[d][1,3]dioxol-5-yl)amino)pyrrolidin-2-one]
5.66 to 7.00 | O=C1C(Nc2nc3ccccc3[nH]2)CCN1c1ccc(-c2cn[nH]c2)cc1 (single isomer, unassigned) [Example 55, 3-((1H-benzo[d]imidazol-2-yl)amino)-1-(4-(1H-pyrazol-4-yl)phenyl)pyrrolidin-2-one]
7.00 to 8.00 | O=C1C(Nc2nc3ccccc3[nH]2)CCN1c1ccc(-c2cn[nH]c2)cc1 (single isomer, unassigned) [Example 56, 3-((1H-benzo[d]imidazol-2-yl)amino)-1-(4-(1H-pyrazol-4-yl)phenyl)pyrrolidin-2-one]
> 8.00 | COc1cccc(NC2CCN(c3ccc(-c4cn[nH]c4)c(OC)c3)C2=O)c1 (single isomer, unassigned) [Example 74, 1-(3-methoxy-4-(1H-pyrazol-4-yl)phenyl)-3-((3-methoxyphenyl)amino)pyrrolidin-2-one]
5.66 to 7.00 | COc1cccc(NC2CCN(c3ccc(-c4ccnc(N)c4)cc3)C2=O)c1 (single isomer, unassigned) [Example 76, 1-(4-(2-aminopyridin-4-yl)phenyl)-3-((3-methoxyphenyl)amino) pyrrolidin-2-one]
7.00 to 8.00 | COc1cccc(NC2CCN(c3ccc(-c4ccnc(N)c4)cc3)C2=O)c1 (single isomer, unassigned) [Example 77, 1-(4-(2-aminopyridin-4-yl)phenyl)-3-((3-methoxyphenyl)amino)pyrrolidin-2-one]
7.00 to 8.00 | COc1cccc(NC2CCN(c3ccc(-c4ccnc(N)n4)cc3)C2=O)c1 (single isomer, unassigned) [Example 78, 1-(4-(2-aminopyrimidin-4-yl)phenyl)-3-((3-methoxyphenyl)amino)pyrrolidin-2-one]
5.66 to 7.00 | COc1cccc(NC2CCN(c3ccc(-c4ccnc5[nH]ccc45)cc3)C2=O)c1 (single isomer, unassigned) [Example 80, 1-(4-(1H-pyrrolo[2,3-b]pyridin-4-yl)phenyl)-3-((3-methoxyphenyl)amino) pyrrolidin-2-one]
7.00 to 8.00 | COc1cccc(NC2CCN(c3ccc(-c4ccnc5[nH]ccc45)cc3)C2=O)c1 (single isomer, unassigned) [Example 81, 1-(4-(1H-pyrrolo[2,3-b]pyridin-4-yl)phenyl)-3-((3-methoxyphenyl)amino)pyrrolidin-2-one]
